Results on 16 compounds are retold here after patent publication US20100286145A1, “ISOPHTHALAMIDE DERIVATIVES INHIBITING BETA-SECRETASE ACTIVITY” (CoMentis, Inc., priority 2007, published 2010).

Like-named read-outs stand apart in the source and are kept apart here.

The target in one test is memapsin 2 (Homo sapiens, UniProt P56817). Put plainly: Inhibition of memapsin 2 beta-secretase activity (fluorogenic substrate FS-2). The test is classed as biochemical. To be noted: memapsin 2, pH 4, 37° C., read-out: M2Ki. In outline: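 Kinetic fluorogenic assay: hydrolysis of the MCA/DNP-labelled APP Swedish-variant peptide FS-2 monitored as fluorescence rise at 37° C, pH 4, after 20 min enzyme–compound preincubation. Relative rates fitted with a tight-binding inhibitor model.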

In test [1] the test system is Aβ production in Chinese hamster ovary cells that over-express human APP695 with the London and Swedish mutations. Put plainly: Cellular Aβ IC50 determination (Aβ40 sandwich ELISA). It counts as cell-based. The conditions noted are these: cellular Aβ production, read-out: IC50. The protocol: The potency of compounds against memapsin 2 activity was determined in a cellular assay of Aβ production. […] Chinese hamster ovary cells that over-express human APP695 with the London and Swedish mutations were seeded in multi-well plates at 10% confluency. Compounds are dissolved in DMSO to concentrations near 1 mM, and diluted into culture media to a final concentration near 4 μM (final 0.4% DMSO). […] Aliquots were removed and assayed for Aβ40 content using a sandwich ELISA (BioSource International). Amount of Aβ40 over the range of concentration of compounds, relative to control incubations, were fit to a 4-parameter IC50 model.
For orientation: An ELISA detects its analyte on a solid surface through an enzyme-linked reagent.

Chain of memapsin 2 (P56817 46-501): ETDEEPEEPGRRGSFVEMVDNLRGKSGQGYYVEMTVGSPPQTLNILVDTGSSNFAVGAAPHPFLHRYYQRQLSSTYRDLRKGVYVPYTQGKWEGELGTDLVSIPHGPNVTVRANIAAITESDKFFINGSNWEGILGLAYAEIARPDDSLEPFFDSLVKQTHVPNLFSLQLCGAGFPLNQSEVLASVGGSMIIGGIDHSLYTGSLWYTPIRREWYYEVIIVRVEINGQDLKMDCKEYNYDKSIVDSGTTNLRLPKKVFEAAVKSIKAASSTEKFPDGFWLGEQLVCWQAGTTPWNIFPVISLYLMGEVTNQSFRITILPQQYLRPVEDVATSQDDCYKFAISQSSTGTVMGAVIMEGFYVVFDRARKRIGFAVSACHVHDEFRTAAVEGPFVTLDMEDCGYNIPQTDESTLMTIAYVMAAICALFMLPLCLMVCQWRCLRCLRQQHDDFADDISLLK

As a reminder, the IC50 is the concentration that inhibits the measured activity by half. As to `Cc1csc(CN(C)C(=O)c2cccc(C(=O)N[C@@H](Cc3ccccc3)[C@H](O)CNCc3cc(OCc4ccccc4)cc(C(C)C)c3)c2)n1` [Compound 116, N1-((2S,3R)-4-(3-(benzyloxy)-5-isopropylbenzylamino)-3-hydroxy-1-phenylbutan-2-yl)-N3-methyl-N3-((4-methylthiazol-2-yl)methyl)isophthalamide], the Ki on memapsin 2 (20 minutes pre-incubation) is under 0.3 µM. Further, the half-inhibitory concentration (IC50) in test [1] (Cricetulus griseus) is under 1 µM.

On to `C=C(C)c1cccc(CNC[C@@H](O)[C@H](Cc2ccccc2)NC(=O)c2cccc(C(=O)N(C)Cc3nc(C)cs3)c2)c1` [Compound 168, N1-((2S,3R)-3-hydroxy-1-phenyl-4-(3-(prop-1-en-2-yl)benzylamino)butan-2-yl)-N3-methyl-N3-((4-methylthiazol-2-yl)methyl)isophthalamide], for which, at memapsin 2 (20 minutes pre-incubation), the Ki is under 0.3 µM. For the same compound, the IC50 in test [1] (Cricetulus griseus) is under 1 µM.

As to `CC(=O)Nc1cc(CNC[C@@H](O)[C@H](Cc2ccccc2)NC(=O)c2cccc(C(=O)N(C)Cc3nc(C)cs3)c2)cc(C(F)(F)F)c1` [Compound 276, N1-((2S,3R)-4-(3-acetamido-5-(trifluoromethyl)benzylamino)-3-hydroxy-1-phenylbutan-2-yl)-N3-methyl-N3-((4-methylthiazol-2-yl)methyl)isophthalamide], the Ki on memapsin 2 (fluorogenic substrate FS-2) is under 0.3 µM. The IC50 in test [1] (Cricetulus griseus) was under 1 µM.

With `COc1cccc(CNC[C@@H](O)[C@H](Cc2ccccc2)NC(=O)c2cc(OS(C)(=O)=O)cc(C(=O)N(C)Cc3nc(C)cs3)c2)c1` [Compound 67, 3-((2S,3R)-3-hydroxy-4-(3-methoxybenzylamino)-1-phenylbutan-2-ylcarbamoyl)-5-(methyl((4-methylthiazol-2-yl)methyl)carbamoyl)phenyl methanesulfonate], the Ki on memapsin 2 (20 minutes pre-incubation) is under 0.3 µM. In addition, the IC50 in test [1] (Cricetulus griseus) is under 1 µM.

In the case of `Cc1csc(CN(C)C(=O)c2cccc(C(=O)N[C@@H](Cc3ccccc3)[C@H](O)CNCc3cccc(N)c3)c2)n1` [Compound 191, N1-((2S,3R)-4-(3-aminobenzylamino)-3-hydroxy-1-phenylbutan-2-yl)-N3-methyl-N3-((4-methylthiazol-2-yl)methyl)isophthalamide], on memapsin 2 (20 minutes pre-incubation), the Ki is over 0.501 µM. Besides, the IC50 in test [1] (Cricetulus griseus) was over 5 µM.

Consider `Cc1csc(CN(C)C(=O)c2cccc(C(=O)N[C@@H](Cc3ccccc3)[C@H](O)CNCc3cccc(-c4ccccc4)c3)c2)n1` [Compound 267, N1-((2S,3R)-4-(biphenyl-3-ylmethylamino)-3-hydroxy-1-phenylbutan-2-yl)-N3-methyl-N3-((4-methylthiazol-2-yl)methyl)isophthalamide], for which the Ki at memapsin 2 (fluorogenic substrate FS-2) was under 0.3 µM. Also, the IC50 in test [1] (Cricetulus griseus) is under 1 µM.

Turning to `Cc1csc(CN(C)C(=O)c2cccc(C(=O)N[C@@H](Cc3ccccc3)[C@H](O)CNCc3cc(NS(C)(=O)=O)cc(C(C)C)c3)c2)n1` [Compound 119, N1-((2S,3R)-3-hydroxy-4-(3-isopropyl-5-(methylsulfonamido)benzylamino)-1-phenylbutan-2-yl)-N3-methyl-N3-((4-methylthiazol-2-yl)methyl)isophthalamide], on memapsin 2 (20 minutes pre-incubation), the Ki is under 0.3 µM. In addition, the concentration for half-maximal inhibition (IC50) in test [1] (Cricetulus griseus) was under 1 µM.

For `Cc1csc(CN(C)C(=O)c2cccc(C(=O)N[C@@H](Cc3ccccc3)[C@H](O)CNCc3cc(CNS(C)(=O)=O)cc(C(C)C)c3)c2)n1` [Compound 175, N1-((2S,3R)-3-hydroxy-4-(3-isopropyl-5-(methylsulfonamidomethyl)benzylamino)-1-phenylbutan-2-yl)-N3-methyl-N3-((4-methylthiazol-2-yl)methyl)isophthalamide], at memapsin 2 (20 minutes pre-incubation), the Ki is over 0.501 µM. Besides, the IC50 in test [1] (Cricetulus griseus) was over 5 µM.

Take `Cc1csc(CN(C)C(=O)c2cccc(C(=O)N[C@@H](Cc3ccccc3)[C@H](O)CNCc3cc(O)cc(C(C)(C)C)c3)c2)n1` [Compound 215, N1-((2S,3R)-4-(3-tert-butyl-5-hydroxybenzylamino)-3-hydroxy-1-phenylbutan-2-yl)-N3-methyl-N3-((4-methylthiazol-2-yl)methyl)isophthalamide]: the Ki on memapsin 2 (fluorogenic substrate FS-2) was under 0.3 µM. The half-maximal inhibitory concentration (IC50) in test [1] (Cricetulus griseus) is under 1 µM.

On to `C[C@@H](NC(=O)c1cc(C(=O)N[C@@H](Cc2ccccc2)[C@H](O)CNCc2cc(C(C)(C)C)ccc2O)cc(N(C)S(C)(=O)=O)c1)c1ccccc1` [Compound 110, N1-((2S,3R)-4-(5-tert-butyl-2-hydroxybenzylamino)-3-hydroxy-1-phenylbutan-2-yl)-5-(N-methylmethylsulfonamido)-N3-((R)-1-phenylethyl)isophthalamide], for which the Ki on memapsin 2 (20 minutes pre-incubation) is under 0.3 µM. Moreover, the 50% inhibitory concentration (IC50) in test [1] (Cricetulus griseus) was under 1 µM.

On to `COc1cccc(CN(C)C[C@@H](O)[C@H](Cc2ccccc2)NC(=O)c2cccc(C(=O)N(C)Cc3nc(C)cs3)c2)c1` [Compound 1, N^1-((2S,3R)-3-hydroxy-4-((3-methoxybenzyl)(methyl)amino)-1-phenylbutan-2-yl)-N^3-methyl-N^3-((4-methylthiazol-2-yl)methyl)isophthalamide], for which the Ki at memapsin 2 (20 minutes pre-incubation) is under 0.3 µM. For the same compound, in test [1], the IC50 was under 1 µM.

For the compound `Cc1csc(CN(C)C(=O)c2cc(C(=O)N[C@@H](Cc3ccccc3)[C@H](O)CNCc3cncc(C(C)C)c3)cc(-c3ccccn3)c2)n1` [Compound 181, N1-((2S,3R)-3-hydroxy-4-((5-isopropylpyridin-3-yl)methylamino)-1-phenylbutan-2-yl)-N3-methyl-N3-((4-methylthiazol-2-yl)methyl)-5-(pyridin-2-yl)isophthalamide], the Ki on memapsin 2 (20 minutes pre-incubation) is under 0.3 µM. Besides, the IC50 in test [1] (Cricetulus griseus) was under 1 µM.

Regarding `C[C@@H](NC(=O)c1cc(C(=O)N[C@@H](Cc2ccccc2)[C@H](O)CNCc2cccc(C(C)(C)C)c2O)cc(N(C)S(C)(=O)=O)c1)c1ccccc1` [Compound 79, N1-((2S,3R)-4-(3-tert-butyl-2-hydroxybenzylamino)-3-hydroxy-1-phenylbutan-2-yl)-5-(N-methylmethylsulfonamido)-N3-((R)-1-phenylethyl)isophthalamide], the Ki at memapsin 2 (20 minutes pre-incubation) is under 0.3 µM. Also, in test [1] (Cricetulus griseus), the IC50 was under 1 µM.

For `Cc1csc(CN(C)C(=O)c2cccc(C(=O)N[C@@H](Cc3ccccc3)[C@H](O)CNC(C)c3cncc(C(C)C)c3)c2)n1` (stereo partly drawn) [Compound 148, N1-((2S,3R)-3-hydroxy-4-(1-(5-isopropylpyridin-3-yl)ethylamino)-1-phenylbutan-2-yl)-N3-methyl-N3-((4-methylthiazol-2-yl)methyl)isophthalamide], the Ki on memapsin 2 (20 minutes pre-incubation) is under 0.3 µM. Moreover, the half-inhibitory concentration (IC50) in test [1] (Cricetulus griseus) was under 1 µM.

As to `COC(=O)Nc1cc(CNC[C@@H](O)[C@H](Cc2ccccc2)NC(=O)c2cccc(C(=O)N(C)Cc3nc(C)cs3)c2)cc(C(C)C)c1` [Compound 202, methyl 3-(((2R,3S)-2-hydroxy-3-(3-(methyl((4-methylthiazol-2-yl)methyl)carbamoyl)benzamido)-4-phenylbutylamino)methyl)-5-isopropylphenylcarbamate], the Ki at memapsin 2 (20 minutes pre-incubation) was under 0.3 µM. In addition, in test [1] (Cricetulus griseus), the half-maximal inhibitory concentration (IC50) is under 1 µM.

For the compound `Cc1csc(CN(C)C(=O)c2cccc(C(=O)N[C@@H](Cc3ccccc3)[C@H](O)CNCc3cc(C(C)C)cc(S(=O)(=O)C(C)C)c3)c2)n1` [Compound 229, N1-((2S,3R)-3-hydroxy-4-(3-isopropyl-5-(isopropylsulfonyl)benzylamino)-1-phenylbutan-2-yl)-N3-methyl-N3-((4-methylthiazol-2-yl)methyl)isophthalamide], on memapsin 2 (fluorogenic substrate FS-2), the Ki was under 0.3 µM. The IC50 in test [1] (Cricetulus griseus) was over 5 µM.
